Laboratory results: patent US20210070684A1, “PRODUCTION OF HIGHLY PURE META,META-COUPLED BIS(4-ALKYLPHENOL) DERIVATIVES AND USES THEREOF” (KATHOLIEKE UNIVERSITEIT LEUVEN, priority 2017, published 2021)

melting point: 134 to 136 °C
SMILES: COc1cc(C)c(Cc2cc(O)c(OC)cc2C)cc1O [Reference Example 1, 5,5′-methylenebis(2-methoxy-4-methylphenol)]
